Experiment [1] concerns hBMVECs. The experiment in a line: Assay for F-actin stress fiber development in thrombin treated hBMVECs. The format is cell-based, human. Conditions: thrombin 0.1 unit/ml 30 min; GSNO 100 μM or SIN-1 100 μM pretreated 2 hr. How it is done: Cell culture: Primary human brain microvascular endothelial cells (hBMVECs) were purchased from Angio-Proteomie (Cat #: cAP-0002, Atlanta, Ga.). The cells were cultured in cell culture flasks or plates precoated with Quick Coating Solution (Angio-Proteomie; Cat #: cAP-01) and maintained in Endothelial Growth Medium (Angio-Proteomie; Cat #: cAP-02) at 37° C. under 5% CO2/95% air. When the cells were almost confluent, the medium was replaced with endothelial basal medium (Angio-Proteomie; Cat #: cAP-03) containing 0.5% fetal bovine serum (FBS; Life Technologies, Grand Island, N.Y.) about 8-12 hours before the experiment. No institutional approval was required for this study. The study was not pre-registered.
Assay for F-actin stress fiber development and endothelial cell contraction: hBMVECs were cultured on fibronectin-coated chamber slides (BD Bioscience). Following drug treatments, the cells were fixed with 4% (wt/vol) paraformaldehyde, permeabilized by the addition of 0.25% Triton X-100, and blocked by 2% bovine serum albumin (BSA) in phosphate buffered saline (PBS). […] The density of fluorescence was analyzed by ImageJ (NIH, Bethesda, Md.).

The test system of experiment [2] is myelin. The experiment can be described thus: Myelin status in spinal cords of EAE mice (immunofluorescent staining for MBP, Western for MBP and PLP). Conditions: 1 mg/kg/day, N6022 vs FTY720. The format is in vivo, C57BL/6 mice. Here is the method: Female C57BL/6 mice of 8-12 weeks of age, purchased from Jackson Laboratory, were provided with food and water ad libitum and were kept in pathogen free animal care facility of Medical University of South Carolina (MUSC) throughout the study. All procedures were conducted in accordance with accepted standards of humane care as approved by the Institutional Animal Care and Use Committee (Approved number: AR #1644). EAE was induced as described previously (Nath et al., 2009). Briefly, mice were immunized subcutaneously in the flank regions with MOG35-55 peptide (MOG; 200 μg; Peptide International) emulsified (1:1) in 100 ul complete Freund's adjuvant (CFA) on day 0 and day 7. Additionally, 300 ng of Pertussis toxin (Sigma-Aldrich, St. Louis, Mo.) was given on day 0 and day 2 by i.p. injection. […] Clinical signs of EAE were scored by examiners blinded to experimental treatments using the following scale: 0=no clinical signs of disease; 1=piloerection and sluggish; 2=limp tail (ataxia); 2.5=ataxia with partial hind limb paralysis; 3=full paralysis of hind limb; 3.5=full paralysis of hind limb with paralysis of one fore limb; 4=full paralysis of two limbs; 4.5=moribund stage; 5=death. […]
Tissue samples were embedded in paraffin block and sectioned transversely (5 μm-thick). […] For the quantitation of infiltrates, the digital images were analyzed by ImageJ (NIH, Bethesda, Md.). […]

The target in experiment [3] is GSNOR (Homo sapiens, UniProt P11766). To be noted: description of the compound; cited from earlier work.
GSNOR, sequence (P11766 whole entry): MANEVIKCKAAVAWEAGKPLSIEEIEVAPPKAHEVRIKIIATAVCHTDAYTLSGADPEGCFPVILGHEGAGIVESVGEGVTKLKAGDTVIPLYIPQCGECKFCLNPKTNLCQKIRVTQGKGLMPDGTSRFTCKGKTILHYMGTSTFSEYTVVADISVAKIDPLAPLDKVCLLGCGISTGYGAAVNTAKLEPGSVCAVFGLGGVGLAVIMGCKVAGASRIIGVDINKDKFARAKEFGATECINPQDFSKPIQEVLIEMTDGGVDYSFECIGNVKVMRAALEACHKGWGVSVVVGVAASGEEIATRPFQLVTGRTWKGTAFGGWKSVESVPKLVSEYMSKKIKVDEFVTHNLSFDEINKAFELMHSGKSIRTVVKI

On to `N[C@@H](CCC(=O)N[C@@H](CSN=O)C(=O)NCC(=O)O)C(=O)O` [GSNO, S-nitrosoglutathione], for which the “thrombin-induced development of F-actin stress fiber formation” value in experiment [1] is recorded as “inhibited”.

Regarding `Cc1cc(C(N)=O)ccc1-n1c(CCC(=O)O)ccc1-c1ccc(-n2ccnc2)cc1` [N6022, reference compound], in experiment [2], the “protection against myelin loss in the spinal cords” value was “protects against the myelin loss in the spinal cords of EAE mice greater than FTY720 treatment”. Also, the “inhibition of GSNOR” value in experiment [3] was “very potent, specific, and reversible inhibitor”.
